Laboratory results from patent EP0908457B1, “3-(1,2-benzisothiazol- and isoxazol-5-Y1)-2,4(1H,3H)-pyrimidinedione or thione and 3-(1,2-benzisothiazol- and isoxazol-5-y1)-4(3H)-pyrimidinone or thione herbicidal agents” (BASF AKTIENGESELLSCHAFT, priority 1997, dated 1999).

Tests used:
[1] = system: Sagittaria pygmaea, L.; assay: Preemergence weed control under flooded paddy conditions, SAGPY (Arrowhead (Pygmaea)); format: in vivo; conditions: preemergence, flooded paddy, rated three to four weeks after treatment
[2] = system: Cyperus serotinus, Rottb.; assay: Preemergence weed control under flooded paddy conditions, CYPSE (Flatsedge); format: in vivo; conditions: preemergence, rated three to four weeks after treatment
[3] = system: Echinochloa oryzoides (Ard.) Fritsch.; assay: Preemergence weed control under flooded paddy conditions, ECHORC (Watergrass (Calif.)); format: in vivo; conditions: preemergence, flooded paddy, rated three to four weeks after treatment
[4] = system: Oryza sativa, (L.) Tebonnet; assay: Rice tolerance to post-transplant applications under flooded paddy conditions (Example 187), ORYSAT (Rice, Tebonnet); conditions: rated three to four weeks after treatment
[5] = system: Cyperus iria; assay: Preemergence weed control under flooded paddy conditions, CYPIR (Rice Flatsedge); format: in vivo; conditions: preemergence, flooded paddy, rated three to four weeks after treatment
[6] = system: Monochoria vaginalis, Presl.; assay: Preemergence weed control under flooded paddy conditions, MOOVA (Monochoria); format: in vivo; conditions: preemergence, flooded paddy, rated three to four weeks after treatment

| SMILES | SAGPY herbicidal effect rating ([1]; Rate 0.0313 kg/ha) | SAGPY herbicidal effect rating ([1]; Rate 0.0625 kg/ha) | SAGPY herbicidal effect rating ([1]; Rate 0.1250 kg/ha) | SAGPY herbicidal effect rating ([1]; Rate 0.2500 kg/ha) | CYPSE herbicidal effect rating ([2]; Rate 0.0313 kg/ha) | CYPSE herbicidal effect rating ([2]; Rate 0.0625 kg/ha) | CYPSE herbicidal effect rating ([2]; Rate 0.1250 kg/ha) | CYPSE herbicidal effect rating ([2]; Rate 0.2500 kg/ha) | ECHORC herbicidal effect rating ([3]; Rate 0.0313 kg/ha) | ECHORC herbicidal effect rating ([3]; Rate 0.0625 kg/ha) | ECHORC herbicidal effect rating ([3]; Rate 0.1250 kg/ha) | ECHORC herbicidal effect rating ([3]; Rate 0.2500 kg/ha) | ORYSAT herbicidal effect rating ([4]; Rate 0.0313 kg/ha) | ORYSAT herbicidal effect rating ([4]; Rate 0.0625 kg/ha) | ORYSAT herbicidal effect rating ([4]; Rate 0.1250 kg/ha) | ORYSAT herbicidal effect rating ([4]; Rate 0.2500 kg/ha) | CYPIR herbicidal effect rating ([5]; Rate 0.0313 kg/ha) | CYPIR herbicidal effect rating ([5]; Rate 0.0625 kg/ha) | CYPIR herbicidal effect rating ([5]; Rate 0.1250 kg/ha) | CYPIR herbicidal effect rating ([5]; Rate 0.2500 kg/ha) | other results |
| --- | --- | --- | --- | --- | --- | --- | --- | --- | --- | --- | --- | --- | --- | --- | --- | --- | --- | --- | --- | --- | --- |
| Cc1nsc2ccc(-n3c(=O)cc(C(F)(F)F)n(Cc4ccccc4)c3=O)cc12 [Example 218, 1-Benzyl-3-(3-methyl-1,2-benzisothiazol-5-yl)-6-(trifluoromethyl)-2,4(1H,3H)-pyrimidinedione] | 0.0 | 0.0 | 0.0 | 0.0 | 0.0 | 0.0 | 0.0 | 0.0 | 0.0 | 0.0 | 2.0 | 4.0 | 1.0 | 2.0 | 3.0 | 3.0 | 0.0 | 0.0 | 0.0 | 0.0 | MOOVA herbicidal effect rating ([6]; Rate 0.0313 kg/ha): 8.0; MOOVA herbicidal effect rating ([6]; Rate 0.0625 kg/ha): 9.0; MOOVA herbicidal effect rating ([6]; Rate 0.1250 kg/ha): 9.0; MOOVA herbicidal effect rating ([6]; Rate 0.2500 kg/ha): 9.0 |
| C=CCCOCc1nsc2ccc(-n3c(=O)cc(C(F)(F)F)n(C)c3=O)cc12 [Example 223, 3-{3-[(3-Butenyloxy)methyl]-1,2-benzisothiazol-5-yl}-1-methyl-6-(trifluoromethyl)-2,4(1H,3H)-pyrimidinedione] | 0.0 | 2.0 | 6.0 | 9.0 | 0.0 | 4.0 | 6.0 | 8.0 | 6.0 | 6.0 | 8.0 | 9.0 | 7.0 | 8.0 | 8.0 | 9.0 | 4.0 | 7.0 | 7.0 | 9.0 | MOOVA herbicidal effect rating ([6]; Rate 0.0313 kg/ha): 9.0; MOOVA herbicidal effect rating ([6]; Rate 0.0625 kg/ha): 9.0; MOOVA herbicidal effect rating ([6]; Rate 0.1250 kg/ha): 9.0; MOOVA herbicidal effect rating ([6]; Rate 0.2500 kg/ha): 9.0 |
| Cn1c(C(F)(F)F)cc(=O)n(-c2ccc3snc(COCCCCl)c3c2)c1=O [Example 224, 3-{3-[(3-Chloropropoxy)methyl]-1,2-benzisothiazol-5-yl}-1-methyl-6-(trifluoromethyl)-2,4(1H,3H)-pyrimidinedione] | 0.0 | 2.0 | 4.0 | 8.0 | 0.0 | 0.0 | 2.0 | 7.0 | 6.0 | 9.0 | 9.0 | 9.0 | 6.0 | 7.0 | 8.0 | 9.0 | 4.0 | 7.0 | 8.0 | 8.0 | MOOVA herbicidal effect rating ([6]; Rate 0.0313 kg/ha): 9.0; MOOVA herbicidal effect rating ([6]; Rate 0.0625 kg/ha): 9.0; MOOVA herbicidal effect rating ([6]; Rate 0.1250 kg/ha): 9.0; MOOVA herbicidal effect rating ([6]; Rate 0.2500 kg/ha): 9.0 |
| Cn1c(C(F)(F)F)cc(=O)n(-c2ccc3snc(CO)c3c2)c1=O [Example 225, 3-[3-(Hydroxymethyl)-1,2-benzisothiazol-5-yl]-1-methyl-6-(trifluoromethyl)-2,4(1H,3H)-pyrimidinedione] | 0.0 | 0.0 | 0.0 | 0.0 | 0.0 | 0.0 | 0.0 | 0.0 | 0.0 | 2.0 | 4.0 | 7.0 | 3.0 | 4.0 | 6.0 | 7.0 | 0.0 | 0.0 | 2.0 | 7.0 | MOOVA herbicidal effect rating ([6]; Rate 0.0313 kg/ha): 8.0; MOOVA herbicidal effect rating ([6]; Rate 0.0625 kg/ha): 8.0; MOOVA herbicidal effect rating ([6]; Rate 0.1250 kg/ha): 9.0; MOOVA herbicidal effect rating ([6]; Rate 0.2500 kg/ha): 9.0 |
